Entries after “also recorded” stand apart in the source; their conditions may differ.
How the values were obtained:
[1] = system: citrus red mite (Panonychus citri); assay: Test Example 1: spray application to satsuma mandarin infested with citrus red mite, greenhouse; type: in vivo; conditions: for Number of adult citrus red mite 7th day / Number of adult citrus red mite 12th day / Number of adult citrus red mite 18th day / Number of adult citrus red mite 26th day: 150 ppm active ingredient, sprayed; for Number of adult citrus red mite 7th day: 10% water-based suspension concentrate, 7th day after application; for Number of adult citrus red mite 12th day: 12th day after application; for Number of adult citrus red mite 18th day: 18th day after application; for Number of adult citrus red mite 26th day: 26th day after application; for pesticidal effects (in words): 150 ppm, citrus red mite on satsuma mandarin, conclusion from Table 1; for Number of adult citrus red mite Before application: baseline count before application, all leaves of satsuma mandarin tree
Excerpt: A 10% water-based suspension concentrate of each of compound D and compound E was dispersed in water to obtain a chemical solution wherein the active ingredient is 150 ppm. Such a chemical solution was applied to satsuma mandarin (Citrus unshiu Marc.) infested with citrus red mite (Panonychus citri) (planted in a plastic pot having a diameter of 24 cm and a height of 29 cm) by means of a sprayer and then left to stand in a greenhouse. Before the application and on the 7th day, 12th day, 18th day and 26th day after the application, the number of adult citrus red mite on all leaves of the satsuma mandarin tree was counted.

[2] = system: two-spotted spider mite (Tetranychus urticae); assay: Test Example 2: spray application to eggplant infested with two-spotted spider mite, greenhouse; type: in vivo; conditions: for Number of adult two-spotted spite mite 5th day / Number of adult two-spotted spite mite 9th day / Number of adult two-spotted spite mite 12th day / Number of adult two-spotted spite mite 15th day: 150 ppm active ingredient, sprayed; for Number of adult two-spotted spite mite 5th day: 10% water-based suspension concentrate in water with 0.02% spreader, 5th day after application; for Number of adult two-spotted spite mite 9th day: 9th day after application; for Number of adult two-spotted spite mite 12th day: 12th day after application; for Number of adult two-spotted spite mite 15th day: 15th day after application; for pesticidal effects (in words): 150 ppm, two-spotted spider mite on eggplant, conclusion from Table 2; for Number of adult two-spotted spite mite Before application: baseline count before application, on the eggplant
Excerpt: A 10% water-based suspension concentrate of each of compounds H and G was dispersed in water containing 0.02% of a spreader (Shinrino, manufactured by NIHON NOHYAKU CO., LTD.) to obtain a chemical solution wherein the active ingredient was 150 ppm. Such a chemical solution was applied to an eggplant (Solanum melongena) infested with two-spotted spider mite (Tetranychus urticae) (planted in a plastic pot having a diameter of 17 cm and a height of 19 cm) by means of a sprayer, and then left to stand in a greenhouse. Before the application and on the 5th day, 9th day, 12th day and 15th day after the application, the number of adult two-spotted spider mite on the eggplant was counted.

Row | SMILES | Number of adult citrus red mite 7th day [1] | Number of adult citrus red mite 12th day [1] | Number of adult citrus red mite 18th day [1] | Number of adult citrus red mite 26th day [1] | pesticidal effects (in words) [1] | Number of adult citrus red mite Before application [1] | Number of adult two-spotted spite mite 5th day [2] | Number of adult two-spotted spite mite 9th day [2] | Number of adult two-spotted spite mite 12th day [2] | Number of adult two-spotted spite mite 15th day [2] | pesticidal effects (in words) [2] | Number of adult two-spotted spite mite Before application [2]
1 | CSC(=O)OC(=C(C#N)c1ccc(C(C)(C)C)cc1)c1ccccc1C(F)(F)F [Compound D, α-(4-tert-Butylphenyl)-β-[(methylthio)carbonyloxy]-β-(2-trifluoromethylphenyl)acrylonitrile] | 0 | 4 | 2 | 65 | excellent pesticidal effects | 111 |  |  |  |  |  | 
2 | CSC(=O)OC(=C(C#N)c1ccc(C(C)(C)C)cc1)c1ccccc1C(F)(F)F [Compound E, α-(4-tert-Butylphenyl)-β-[(methylthio)carbonyloxy]-β-(2-trifluoromethylphenyl)acrylonitrile] | 0 | 2 | 1 | 4 | excellent pesticidal effects; also recorded: superior pesticidal effects | 106 |  |  |  |  |  | 
3 | CSC(=S)OC(=C(C#N)c1ccc(Cl)cc1)c1ccccc1C(F)(F)F [Compound G, α-(4-Chlorophenyl)-β-(S-methyldithiocarbonyloxy)-β-(2-trifluoromethylphenyl)acrylonitrile] |  |  |  |  |  |  | 1 | 0 | 2 | 4 | excellent pesticidal effects; also recorded: superior pesticidal effects | 106
4 | CSC(=S)OC(=C(C#N)c1ccc(Cl)cc1)c1ccccc1C(F)(F)F [H, α-(4-chlorophenyl)-β-(S-methyldithiocarbonyloxy)-β-(2-trifluoromethylphenyl)acrylonitrile] |  |  |  |  |  |  | 0 | 1 | 18 | 42 | excellent pesticidal effects | 111

— patent US6624179B1, “Geometrical isomers of acrylonitrile compounds, mixture thereof, and process for producing these” (Ishihara Sangyo Kaisha Ltd., priority 1999, dated 2003)
